Measured values as given in the METLIN SMRT retention time set (Domingo-Almenara et al. 2019).

assay: gradient 5% acetonitrile 3 min, to 50% in 2 min, to 85% in 15 min, held 3 min, 100 µL/min; conditions: column: Zorbax Extend-C18 2.1 x 50 mm; eluents: water / acetonitrile, 0.1% formic acid
In short: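 The system's dead and dwell volumes were 40 μL and 900 μL, with a Zorbax Extend-C18 column (2.1 × 50 mm, 1.8 μm) run at 100 μL/min in water and acetonitrile containing 0.1% formic acid each. Pure standards were analyzed in mixtures of ~100 molecules by HPLC–quadrupole time-of-flight mass spectrometry in positive and negative ionization mode. Retention time was assigned from computationally picked, manually inspected adduct peaks.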

Row | Compound | RP-LC retention time [s]
1 | NS(=O)(=O)c1cccnc1Nc1cccc(Br)c1 | 889
2 | C[C@H]1CC[C@@H]2N(C1)C[C@H]1[C@@H]3C[C@H]4[C@@H](CC(=O)[C@H]5C[C@@H](O)CC[C@@]54C)[C@@H]3CC[C@H]1[C@]2(C)O | 601
3 | COc1ccc(-c2nc(C3CC(=O)N(c4ccc(C)cc4)C3)no2)c(C)c1 (centres undefined) | 1090
4 | Cc1nc2ccn(Cc3ccco3)c(=O)c2cc1C(=O)N1CCN(c2ccccn2)CC1 | 602
5 | CC(NC(=O)c1ccc(NC(=O)C2CC2)cc1N1CCCCCC1)c1ccccn1 (centres undefined) | 633
6 | CCCNS(=O)(=O)c1ccc(Cl)c(-c2nnc(-c3ccccc3)o2)c1 | 1010
7 | CCOC(=O)c1cccc(NC(=O)Cn2ccc3ccc(-c4nnc(CC)o4)cc32)c1 | 910
8 | CC(C)c1ccc(S(=O)(=O)N2CC(=O)N(C3CCCC3)C3(CCCCC3)C2)cc1 | 1330
9 | Cc1noc(C)c1S(=O)(=O)N[C@@H]1CN(Cc2ccccc2)C[C@H]1CN(C)C | 570
10 | Cc1ccc(NC(=O)c2cc(C(C)(C)C)n3nccc3n2)cc1 | 1320
11 | COCCN(CC(=O)N1CCc2sccc2C1COc1ccccc1F)C(=O)C(C)C (centres undefined) | 912
12 | O=C(Nc1ccc(Cl)cc1F)N1CCC(n2c(-c3ccco3)nc3cccnc32)C1 (centres undefined) | 827
13 | CC1CC(=O)N(CC(=O)Nc2cccc(Cl)c2)c2ccccc2S1(=O)=O (centres undefined) | 796
14 | CN(C)S(=O)(=O)c1ccc(-c2nnc(C(=O)NCc3cccc(C(F)(F)F)c3)o2)cc1 | 958
15 | COc1ccc(C(=O)NCCc2nc3cccnc3n2C(C)C)cc1 | 649
16 | O=C(c1ccccc1F)N1CCC(CNS(=O)(=O)c2ccc(C(F)(F)F)cc2)CC1 | 847
17 | COc1ccc(NC(=O)Cn2c(=O)c3cc(C)nn3c3ncccc32)c(OC)c1 | 694
18 | CN1CCN(S(=O)(=O)c2ccc3nn(CCc4ccccc4)c(=O)n3c2)CC1 | 627
19 | Cc1nc2nc(-c3ccc(C(C)(C)C)cc3)nn2c(C)c1CC(=O)N1CCCCC1C (centres undefined) | 1080
20 | O=C(CCn1c(=O)oc2ccccc21)N1CC(F)(F)C[C@H]1COc1ccccc1 | 1000
21 | O=C(Nc1c(-c2ccccc2)nc2ccccn12)c1ccc(Cl)cc1Cl | 677
22 | NC(=O)COC1CCC12CCN(C(=O)c1ccc3c(c1)OCO3)CC2 (centres undefined) | 662

Row | Compound | RP-LC retention time [s]
23 | COc1ccc(-c2cc(C(=O)Nc3cc(C)ccc3C)nn2C2CCS(=O)(=O)C2)cc1 (centres undefined) | 982
24 | O=C(Nc1ccccc1)NC1CCN(C(=O)N2C[C@H]3C[C@H](C2)[C@H]2CCCC(=O)N2C3)CC1 | 654
25 | COc1cc(NC(=O)C2CCCN(c3nnc4ccc(Cl)cn34)C2)cc(OC)c1OC (centres undefined) | 734
26 | Cc1ccc(C)c(NC(=O)c2cn(-c3ncccc3-c3nc(C(C)C)no3)cn2)c1 | 1010
27 | Cc1cc(C)cc(Nc2c(-c3ccc(C(=O)O)cc3)nc3cnccn23)c1 | 779
28 | Cc1cc(C)cc(-n2ccn3c(CCC(=O)NCCc4c[nH]c5ccccc45)nnc3c2=O)c1 | 744
29 | COc1ccc(CNC(=O)c2ccc3c(c2)nc2n3CCN(c3ccccc3)C2=O)cc1 | 732
30 | CC(NC(=O)C(=O)NC1CCCCC1)C(c1cccs1)N1CCOCC1 (centres undefined) | 604
31 | CCC1CN(CC(=O)N2CCN(c3ccccn3)CC2)c2ccccc2S1 (centres undefined) | 723
32 | Cc1ccc(CNC(=O)C2CCCN(S(=O)(=O)c3c[nH]c(C(=O)N4CCCCCC4)c3)C2)cc1 (centres undefined) | 883
33 | CCCC(=O)Nc1ccc(-c2nc(Cn3cccn3)c(C)o2)cc1 | 759
34 | CCCn1cc(CCNS(=O)(=O)c2cccc3nsnc23)c2cccnc21 | 791
35 | O=C(C1CC=CCC1)N1CCCC(COCc2ccccc2)C1 (centres undefined) | 979
36 | CN(C)C[C@@H]1CN(C)C[C@H]1NC(=O)c1ccc(Br)cc1 | 553
37 | COc1ccc(NS(=O)(=O)c2[nH]ncc2C(=O)NCc2ccc(SC)cc2)cc1 | 807
38 | Cc1cc(N2C=C(C(=O)N3CCOCC3)S(=O)(=O)c3ccc(F)cc32)ccc1Br | 892
39 | CC(NC(=O)c1ccc2c(c1)OCO2)C(=O)N1CCN(c2ccccn2)CC1 (centres undefined) | 580
40 | Cc1cccc(-c2noc(-c3nn(CC(=O)NC4CCCC4)c4ccccc34)n2)c1 | 1180
41 | CN(CC1CCCO1)S(=O)(=O)c1ccc(C(=O)Nc2sc3c(c2C#N)CCC3)cc1 (centres undefined) | 957
42 | CCCn1cc(S(=O)(=O)Nc2cc(F)ccc2Cl)c2cccnc21 | 950
43 | O=C1CC(c2ccc(C(=O)O)cc2)c2scc(-c3cccc(F)c3)c2N1 (centres undefined) | 823
44 | COC(=O)c1ncn2c1C(=O)N(C1CC1)C(C)(C(=O)NCc1cccc(C)c1)C2 (centres undefined) | 658

Row | Compound | RP-LC retention time [s]
45 | CCS(=O)(=O)N1CCCN(C(=O)NC(C)C)CC1 | 613
46 | CC(C)CCNC(=O)c1ccc2c(c1)nc(Nc1n[nH]c3ccc(-c4ccccc4OC(F)(F)F)cc13)n2C1CCC(O)CC1 (centres undefined) | 957
47 | Cn1cc(-c2ccncc2)cc1C(=O)NCc1ccc(Cl)cc1 | 646
48 | O=C(NCc1ccccc1C(F)(F)F)c1cn2nc(Cl)ccc2n1 | 922
49 | Cc1ccc(C)c(Nc2c(-c3cc(Br)ccc3O)nc3ncccn23)c1 | 1100
50 | O=c1ccc(N2CCCN(S(=O)(=O)c3ccccc3F)CC2)nn1-c1ccccc1 | 820
51 | COc1ccc(NC(=O)N2CCCC2c2nc(-c3ccccc3OC)no2)cc1 (centres undefined) | 826
52 | CCCNC(=O)c1nc2cc(C)c(C)cc2n(C)c1=O | 747
53 | O=C(CCSc1ccccc1)N1CCN(c2ccc3nnc(C4CC4)n3n2)CC1 | 684
54 | O=C(NC1CCCCC1)c1nc(Nc2ccccc2)c2ccccc2n1 | 861
55 | Cc1ccc(-c2nc(C3CCN(C(=O)C4CC(=O)N(c5ccc(C)c(C)c5)C4)CC3)no2)cc1 (centres undefined) | 1070
56 | O=C(Cc1csc2nc(-c3ccccc3)cn12)NCc1cccc(Br)c1 | 872
57 | Cc1nn(CC(=O)NCCN2CCOCC2)c(=O)c2nc(-c3ccccc3)sc12 | 610
58 | O=C(NCC1CC1)c1c(O)c2sccc2n(Cc2ccccc2)c1=O | 766
59 | Cc1ccc(Oc2cccc(C(N)=O)c2)nn1 | 559
60 | Cc1nc(-c2cn(C)c3ncccc23)sc1C(=O)NCc1ccccc1C(F)(F)F | 998
61 | Cc1cc(C(=O)Nc2cc(-c3ccco3)nn2CCO)no1 | 725
62 | CCOC(=O)N1CCC(NC(=O)Cn2ccc3ccccc32)CC1 | 731
63 | COCCN1C(=O)CN(Cc2ccc(C)cc2)C(=O)C1c1cccs1 (centres undefined) | 849
64 | CCN1CCN(CCNC(=O)c2c(N3CCCC3=O)c3cc(OC)ccc3n2C)CC1 | 592
